{"source": "PubChem BioAssay AID1259407", "about": "(Chemical Carcinogenesis Research Information System (CCRIS), 2018)", "tested_on": "CCRIS mutagenicity, Ames/micronucleus/aberration tests", "assay": "CCRIS mutagenicity studies", "note": "Calls of active or inactive are those of the source. The rule behind the calls is not given here."}
{"smiles": "C=CCCC1CO1", "note": "(centres undefined)", "values": [{"measurement": "mutagenic call", "setting": "Test System: AMES SALMONELLA TYPHIMURIUM, Strain/Indicator: TA100, Metabolic Activation: NONE, Method: STANDARD PLATE", "value": "active; positive"}, {"measurement": "mutagenic call", "setting": "Test System: AMES SALMONELLA TYPHIMURIUM, Strain/Indicator: TA1535, Metabolic Activation: NONE, Method: STANDARD PLATE", "value": "active; positive"}]}
{"smiles": "CO[C@@]1(NC(=O)CSC[C@@H](N)C(=O)O)C(=O)N2C(C(=O)O)=C(CSc3nnnn3C)CS[C@@H]21", "values": [{"measurement": "mutagenic call", "setting": "Test System: AMES SALMONELLA TYPHIMURIUM, Strain/Indicator: TA98, Metabolic Activation: NONE", "value": "inactive; negative"}, {"measurement": "mutagenic call", "setting": "Test System: AMES SALMONELLA TYPHIMURIUM, Strain/Indicator: TA98, Metabolic Activation: S-9", "value": "inactive; negative"}, {"measurement": "mutagenic call", "setting": "Test System: AMES SALMONELLA TYPHIMURIUM, Strain/Indicator: TA100, Metabolic Activation: NONE", "value": "inactive; negative"}, {"measurement": "mutagenic call", "setting": "Test System: AMES SALMONELLA TYPHIMURIUM, Strain/Indicator: TA100, Metabolic Activation: S-9", "value": "inactive; negative"}, {"measurement": "mutagenic call", "setting": "Test System: AMES SALMONELLA TYPHIMURIUM, Strain/Indicator: TA1535, Metabolic Activation: NONE", "value": "inactive; negative"}, {"measurement": "mutagenic call", "setting": "Test System: AMES SALMONELLA TYPHIMURIUM, Strain/Indicator: TA1535, Metabolic Activation: S-9", "value": "inactive; negative"}, {"measurement": "mutagenic call", "setting": "Test System: AMES SALMONELLA TYPHIMURIUM, Strain/Indicator: TA1537, Metabolic Activation: NONE", "value": "inactive; negative"}, {"measurement": "mutagenic call", "setting": "Test System: AMES SALMONELLA TYPHIMURIUM, Strain/Indicator: TA1537, Metabolic Activation: S-9", "value": "inactive; negative"}, {"measurement": "mutagenic call", "setting": "Test System: AMES SALMONELLA TYPHIMURIUM, Strain/Indicator: TA1538, Metabolic Activation: NONE", "value": "inactive; negative"}, {"measurement": "mutagenic call", "setting": "Test System: AMES SALMONELLA TYPHIMURIUM, Strain/Indicator: TA1538, Metabolic Activation: S-9", "value": "inactive; negative"}, {"measurement": "mutagenic call", "setting": "Test System: E. COLI, Strain/Indicator: WP2 UVRA, Metabolic Activation: NONE", "value": "inactive; negative"}, {"measurement": "mutagenic call", "setting": "Test System: E. COLI, Strain/Indicator: WP2 UVRA, Metabolic Activation: S-9", "value": "inactive; negative"}]}
{"smiles": "CC(=NC#N)N(C)Cc1ccc(Cl)nc1", "values": [{"measurement": "mutagenic call", "setting": "End Point: In vitro chromosomal aberrations, Test System: Human peripheral lymphocytes, Metabolic Activation: None", "value": "active; positive (structural changes), 20% purity (commercial product mosetam 20 sp)."}, {"measurement": "mutagenic call", "setting": "End Point: In vitro micronucleus, Test System: Human peripheral lymphocytes, Metabolic Activation: None", "value": "active; positive, 20% purity (commercial product mosetam 20 sp)."}, {"measurement": "mutagenic call", "setting": "End Point: In vivo micronucleus, Test System: Bone marrow polychromatic erythrocytes, Species: Mouse, Strain/Sex: CD-1/Female, Route: Gavage", "value": "inactive; negative"}, {"measurement": "mutagenic call", "setting": "End Point: In vivo micronucleus, Test System: Bone marrow polychromatic erythrocytes, Species: Mouse, Strain/Sex: CD-1/Male, Route: Gavage", "value": "inactive; negative"}, {"measurement": "mutagenic call", "setting": "Test System: Ames Salmonella typhimurium, Strain/Indicator: TA98, Metabolic Activation: None, Method: Preincubation", "value": "inactive; negative"}, {"measurement": "mutagenic call", "setting": "Test System: Ames Salmonella typhimurium, Strain/Indicator: TA98, Metabolic Activation: Rodent, Liver, S-9, Method: Preincubation", "value": "inactive; negative"}, {"measurement": "mutagenic call", "setting": "Test System: Ames Salmonella typhimurium, Strain/Indicator: TA100, Metabolic Activation: None, Method: Preincubation", "value": "inactive; negative"}, {"measurement": "mutagenic call", "setting": "Test System: Ames Salmonella typhimurium, Strain/Indicator: TA100, Metabolic Activation: Rodent, Liver, S-9, Method: Preincubation", "value": "inactive; negative"}, {"measurement": "mutagenic call", "setting": "Test System: Ames Salmonella typhimurium, Strain/Indicator: TA1535, Metabolic Activation: None, Method: Preincubation", "value": "inactive; negative"}, {"measurement": "mutagenic call", "setting": "Test System: Ames Salmonella typhimurium, Strain/Indicator: TA1535, Metabolic Activation: Rodent, Liver, S-9, Method: Preincubation", "value": "inactive; negative"}, {"measurement": "mutagenic call", "setting": "Test System: Ames Salmonella typhimurium, Strain/Indicator: TA1537, Metabolic Activation: None, Method: Preincubation", "value": "inactive; negative"}, {"measurement": "mutagenic call", "setting": "Test System: Ames Salmonella typhimurium, Strain/Indicator: TA1537, Metabolic Activation: Rodent, Liver, S-9, Method: Preincubation", "value": "inactive; negative"}, {"measurement": "mutagenic call", "setting": "Test System: E. coli, Strain/Indicator: WP2 uvrA, Metabolic Activation: None, Method: Preincubation", "value": "inactive; negative"}, {"measurement": "mutagenic call", "setting": "Test System: E. coli, Strain/Indicator: WP2 uvrA, Metabolic Activation: Rodent, Liver, S-9, Method: Preincubation", "value": "inactive; negative"}, {"measurement": "mutagenic call", "setting": "Test System: UDS F344 male rat hepatocytes, Strain/Indicator: THY INCORP, Method: Autoradiography", "value": "inactive; negative"}]}
